Data reported in patent publication US9890138B2, “Diaminopyrimidine derivatives and processes for the preparation thereof” (YUHAN CORPORATION, priority 2011, dated 2018).
Structures can show the parent of a compound that is named as a salt.

Biological target: T1, human 5-HT4(a) (Homo sapiens, UniProt Q13639)
T1 construct: host or cells: GeneBlAzer HTR4-CRE-bla CHO-K1 cells
Test: Evaluation of agonistic activity in CHO-K1 cells expressing human 5-HT4(a) (GeneBlAzer HTR4-CRE-bla CHO-K1, beta-lactamase reporter)
Type: cell-based
Details: CHO-K1 cells stably expressing human 5-HT4(a)
Method: Test Example 1: Evaluation of Agonistic Activity in CHO-K1 Cells Expressing Human 5-HT4(a)
As CHO-K1 cells stably expressing human 5-HT4(a), we used the GeneBlAzer HTR4-CRE-bla CHO-K1 cells (Invitrogen Corp.). The cells were cultured, under the condition of 37[…] and 5% CO2, in a DMEM supplemented with 10% fetal bovine serum (FBS), 25 mM HEPES (pH7.4), 600 μg/ml hygromycin B, 0.1 mM non-essential amino acids, 100 unit/ml penicillin and 100 μg/ml streptomycin. Subcultures were performed three times per one week, each being at less than 80% confluence. At the previous day before treating test compounds, the cells were collected using 0.5% trypsin/EDTA and then diluted with a DMEM supplemented with 1% FBS, 25 mM HEPES, and 0.1 mM non-essential amino acids into 3.125×10^5 cells/ml. 32 μl of the diluted cells were added into 384-well plate (10^4 cells per well) and then incubated overnight. After the overnight culture, 8 μl of the medium having 1% of DMSO was added into the cell-free control well and the non-stimulating control well, respectively. 8 μl of the respective test compound dilutions (which had been prepared by diluting by 100-times with the medium as mentioned in the above) having 1% of DMSO were added to the respective remaining wells. After being cultured in the incubator for 5 hours, the wells of the 384-plate were treated with the substrate solution (8 μl per well) prepared according to the vendor's instruction (i.e., Invitrogen's instruction), and then incubated in the dark room for additional two hours. Agonistic activities on 5-HT4 receptor were evaluated, on the basis of fluorescence values of the cleavage-products by beta-lactamase. After exciting to 410 nm of wavelength using a fluorescence detector (Genios Pro), we measured the fluorescence values at two emission wavelengths (first wavelength: 465 nm, second wavelength: 535 nm). Data were analyzed on the basis of the ratio of fluorescence intensities of each well at the respective wavelengths. Each EC50 value was calculated by non-linear regression analysis using the “GraphPad Prism” program, based on the activities according to 8-different concentrations of the test compounds.

T1 sequence (Q13639 1-387 isoform Q13639-2): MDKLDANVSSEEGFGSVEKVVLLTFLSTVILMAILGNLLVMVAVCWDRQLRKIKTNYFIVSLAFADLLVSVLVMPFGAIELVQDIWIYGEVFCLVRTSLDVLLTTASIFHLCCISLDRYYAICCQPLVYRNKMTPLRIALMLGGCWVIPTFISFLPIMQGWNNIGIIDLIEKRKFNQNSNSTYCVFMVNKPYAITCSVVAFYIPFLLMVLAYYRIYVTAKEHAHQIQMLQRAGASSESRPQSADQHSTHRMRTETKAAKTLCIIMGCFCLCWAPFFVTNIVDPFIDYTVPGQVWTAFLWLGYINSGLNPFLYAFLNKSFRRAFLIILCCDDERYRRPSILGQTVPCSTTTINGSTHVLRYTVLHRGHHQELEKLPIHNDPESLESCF

| SMILES | EC50 [nM] |
| --- | --- |
| CCCc1cc(N2CCC(NCC)C2)nc(Nc2ccc(F)cc2)n1 (stereo not shown) [Example 13, 4-[3-(ethylamino)pyrrolidin-1-yl]-N-(4-fluorophenyl)-6-propylpyrimidin-2-amine] | 0.12 |
| CCCc1cc(N2CC[C@H](NC(C)=O)C2)nc(Nc2ccc(F)cc2)n1 [Example 17, (S)-N-{1-[2-(4-fluorophenylamino)-6-propylpyrimidin-4-yl]pyrrolidin-3-yl}acetamide] | 0.35 |
| CCCc1cc(N2CC[C@H](NCC)C2)nc(Nc2ccc(F)cc2)n1 [Example 18, (S)-4-[3-(ethylamino)pyrrolidin-1-yl]-N-(4-fluorophenyl)-6-propylpyrimidin-2-amine] | 0.14 |
| CCCc1cc(N2CC[C@H](NC)C2)nc(Nc2ccc(F)cc2)n1 [Example 22, (S)-N-(4-fluorophenyl)-4-[3-(methylamino)pyrrolidin-1-yl]-6-propylpyrimidin-2-amine] | 0.33 |
| CCCc1cc(N2CCC[C@H]2COC)nc(Nc2ccc(F)c([N+](=O)[O-])c2)n1 [Example 31, (S)-N-(4-fluoro-3-nitrophenyl)-4-[2-(methoxymethyl)pyrrolidin-1-yl]-6-propylpyrimidin-2-amine] | 0.13 |
| CCCc1cc(N2CCC[C@H]2COC)nc(Nc2cccc([N+](=O)[O-])c2)n1 [Example 32, (S)-4-[2-(methoxymethyl)pyrrolidin-1-yl]-N-(3-nitrophenyl)-6-propylpyrimidin-2-amine] | 0.23 |
| CCCc1cc(N2CCC[C@H]2COC)nc(Nc2ccc(Cl)c([N+](=O)[O-])c2)n1 [Example 33, (S)-N-(4-chloro-3-nitrophenyl)-4-[2-(methoxymethyl)pyrrolidin-1-yl]-6-propyl pyrimidin-2-amine] | 0.059 |
| CCCc1cc(N2CCC[C@H]2COC)nc(Nc2cccc(C#N)c2)n1 [Example 34, (S)-3-{4-[2-(methoxymethyl)pyrrolidin-1-yl]-6-propylpyrimidin-2-ylamino}benzonitrile] | 0.16 |
| CCCc1cc(N2CCC[C@H]2COC)nc(Nc2cccc(C(F)(F)F)c2)n1 [Example 36, (S)-4-[2-(methoxymethyl)pyrrolidin-1-yl]-6-propyl-N-[3-(trifluoromethyl)phenyl]pyrimidin-2-amine] | 0.243 |
| CCCc1cc(N2CCC[C@H]2COC)nc(Nc2ccc(C)c([N+](=O)[O-])c2)n1 [Example 40, (S)-4-[2-(methoxymethyl)pyrrolidin-1-yl]-N-(4-methyl-3-nitrophenyl)-6-propylpyrimidin-2-amine] | 0.03 |
| CCCc1cc(N2CCC[C@H]2COC)nc(Nc2ccc(F)c(C(F)(F)F)c2)n1 [Example 41, (S)-N-[4-fluoro-3-(trifluoromethyl)phenyl]-4-[2-(methoxymethyl)pyrrolidin-1-yl]-6-propylpyrimidin-2-amine] | 0.15 |
| CCCc1cc(N2CCC[C@H]2COC)nc(Nc2ccc(N)c(C(F)(F)F)c2)n1 [Example 42, (S)-N^1-{4-[2-(methoxymethyl)pyrrolidin-1-yl]-6-propylpyrimidin-2-yl}-3-(trifluoromethyl)benzene-1,4-diamine] | 0.033 |
| CCCc1cc(N2CCC[C@H]2COC)nc(Nc2ccc(F)c(C#N)c2)n1 [Example 43, (S)-2-fluoro-5-{4-[2-(methoxymethyl)pyrrolidin-1-yl]-6-propylpyrimidin-2-ylamino}benzonitrile] | 0.178 |
| CCCc1cc(N2CCC[C@H]2COC)nc(Nc2ccc(C)c(C#N)c2)n1 [Example 44, (S)-5-{4-[2-(methoxymethyl)pyrrolidin-1-yl]-6-propylpyrimidin-2-ylamino}-2-methylbenzonitrile] | 0.022 |
| CCCc1cc(N2CCC[C@H]2COC)nc(Nc2ccc(N)c(C#N)c2)n1 [Example 45, (S)-2-amino-5-{4-[2-(methoxymethyl)pyrrolidin-1-yl]-6-propylpyrimidin-2-ylamino}benzonitrile] | 0.036 |
| CCCc1cc(N2CCC[C@H]2COC)nc(Nc2ccc(N)c([N+](=O)[O-])c2)n1 [Example 46, (S)-N^1-{4-[2-(methoxymethyl)pyrrolidin-1-yl]-6-propylpyrimidin-2-yl}-3-nitrobenzene-1,4-diamine] | 0.0097 |
| CCCc1cc(N2CC[C@H](N)C2)nc(Nc2ccc(F)cc2)n1 [Example 47, (S)-4-(3-aminopyrrolidin-1-yl)-N-(4-fluorophenyl)-6-propylpyrimidin-2-amine dihydrochloride] | 0.38 |

| SMILES | EC50 [nM] |
| --- | --- |
| CCCc1cc(N2CC[C@H](NC)C2)nc(Nc2cccc(C#N)c2)n1 [Example 50, (S)-3-{4-[3-(methylamino)pyrrolidin-1-yl]-6-propylpyrimidin-2-ylamino}benzonitrile] | 0.012 |
| CCCc1cc(N2CC[C@H](O)C2)nc(Nc2cccc(C#N)c2)n1 [Example 52, (S)-3-[4-(3-hydroxypyrrolidin-1-yl)-6-propylpyrimidin-2-ylamino]benzonitrile] | 0.33 |
| CCCc1cc(N2CCC[C@H]2C)nc(Nc2cccc(C#N)c2)n1 [Example 53, (R)-3-[4-(2-methylpyrrolidin-1-yl)-6-propylpyrimidin-2-ylamino]benzonitrile] | 0.098 |
| CCCc1cc(N2CC[C@H](NC(C)=O)C2)nc(Nc2cccc(C#N)c2)n1 [Example 54, (S)-N-{1-[2-(3-cyanophenylamino)-6-propylpyrimidin-4-yl]pyrrolidin-3-yl}acetamide] | 0.032 |
| CCCc1cc(N2CC[C@H](NCC)C2)nc(Nc2cccc(C#N)c2)n1 [Example 55, (S)-3-{4-[3-(ethylamino)pyrrolidin-1-yl]-6-propylpyrimidin-2-ylamino}benzonitrile] | 0.016 |
| CCCc1cc(N2CC[C@H](CNC(=O)OC(C)(C)C)C2)nc(Nc2cccc(C#N)c2)n1 [Example 56, (R)-tert-butyl{1-[2-(3-cyanophenylamino)-6-propylpyrimidin-4-yl]pyrrolidin-3-yl}methylcarbamate] | 0.312 |
| CCCc1cc(N2CC[C@@H](O)C2)nc(Nc2cccc(C#N)c2)n1 [Example 57, (R)-3-[4-(3-hydroxypyrrolidin-1-yl)-6-propylpyrimidin-2-ylamino]benzonitrile] | 0.389 |
| CCCc1cc(N2CCC(NC)C2)nc(Nc2cccc(C#N)c2)n1 (stereo not shown) [Example 59, 3-{4-[3-(methylamino)pyrrolidin-1-yl]-6-propylpyrimidin-2-ylamino}benzonitrile dihydrochloride] | 0.028 |
| CCCc1cc(N2CC[C@H](N)C2)nc(Nc2cccc(C#N)c2)n1 [Example 60, (S)-3-[4-(3-aminopyrrolidin-1-yl)-6-propylpyrimidin-2-ylamino]benzonitrile dihydrochloride] | 0.047 |
| CCCC(=O)N[C@H]1CCN(c2cc(CCC)nc(Nc3cccc(C#N)c3)n2)C1 [Example 61, (S)-N-{1-[2-(3-cyanophenylamino)-6-propylpyrimidin-4-yl]pyrrolidin-3-yl}butyramide] | 0.15 |
| CCCc1cc(N2CC[C@H](NC(=O)C3CCCC3)C2)nc(Nc2cccc(C#N)c2)n1 [Example 62, (S)-N-{1-[2-(3-cyanophenylamino)-6-propylpyrimidin-4-yl]pyrrolidin-3-yl}cyclopentanecarboxamide] | 0.36 |
| CCCc1cc(N2CC[C@H](NC(=O)CCN3CCCCC3)C2)nc(Nc2cccc(C#N)c2)n1 [Example 63, (S)-N-{1-[2-(3-cyanophenylamino)-6-propylpyrimidin-4-yl]pyrrolidin-3-yl}-3-(piperidin-1-yl)propanamide] | 0.13 |
| CCCc1cc(N2CC[C@H](NC(=O)Cc3ccccc3)C2)nc(Nc2cccc(C#N)c2)n1 [Example 66, (S)-N-{1-[2-(3-cyanophenylamino)-6-propylpyrimidin-4-yl]pyrrolidin-3-yl}-2-phenylacetamide] | 0.1 |
| CCCc1cc(N2CC[C@H](NC(=O)Cc3ccc(F)cc3)C2)nc(Nc2cccc(C#N)c2)n1 [Example 67, (S)-N-{1-[2-(3-cyanophenylamino)-6-propylpyrimidin-4-yl]pyrrolidin-3-yl}-2-(4-fluorophenyl)acetamide] | 0.19 |
| CCCc1cc(N2CC[C@H](NC(=O)CN3CCCCC3)C2)nc(Nc2cccc(C#N)c2)n1 [Example 71, (S)-N-{1-[2-(3-cyanophenylamino)-6-propylpyrimidin-4-yl]pyrrolidin-3-yl}-2-(piperidin-1-yl)acetamide] | 0.25 |
| CCCc1cc(N2CC[C@H](NC(=O)Cc3ccc(N)cc3)C2)nc(Nc2cccc(C#N)c2)n1 [Example 73, (S)-2-(4-aminophenyl)-N-{1-[2-(3-cyanophenylamino)-6-propylpyrimidin-4-yl]pyrrolidin-3-yl}acetamide] | 0.27 |
| CCCc1cc(N2CC[C@H](NC(=O)COC)C2)nc(Nc2cccc(C#N)c2)n1 [Example 75, (S)-N-{1-[2-(3-cyanophenylamino)-6-propylpyrimidin-4-yl]pyrrolidin-3-yl}-2-methoxyacetamide] | 0.22 |
